Measurements as given in patent US20230233650A1, “NOVEL FATTY ACID MODIFIED UROCORTIN 2 DERIVATIVES AND THE USES THEREOF” (Novo Nordisk A/S, priority 2021, published 2023).
Numbered stars: 1 amine (or outer) side, 2 acyl side, 3 side chain; on linkers, the order of the positions; unused ones are H or OH. Side chains are listed from the residue outwards. Peptide text beside a SMILES is read from it. * marks the point of attachment. C20 diacid = O=C(O)CCCCCCCCCCCCCCCCCCC(=O)*; γGlu = O=C(O)[C@H](CCC(=O)[*:2])N[*:1]; AEEA = NCCOCCOCC(=O)O

Assays:
[1] = target: T1, Human CRF1 receptor (Homo sapiens, UniProt P34998); assay: CRF1 receptor binding, scintillation proximity assay (SPA); settings: displacement of [125I]-Sauvagine, CHO-K1 cell membranes
T1 construct: host or cells: CHO-K1 (membrane preparation)
T1 sequence (P34998 24-415): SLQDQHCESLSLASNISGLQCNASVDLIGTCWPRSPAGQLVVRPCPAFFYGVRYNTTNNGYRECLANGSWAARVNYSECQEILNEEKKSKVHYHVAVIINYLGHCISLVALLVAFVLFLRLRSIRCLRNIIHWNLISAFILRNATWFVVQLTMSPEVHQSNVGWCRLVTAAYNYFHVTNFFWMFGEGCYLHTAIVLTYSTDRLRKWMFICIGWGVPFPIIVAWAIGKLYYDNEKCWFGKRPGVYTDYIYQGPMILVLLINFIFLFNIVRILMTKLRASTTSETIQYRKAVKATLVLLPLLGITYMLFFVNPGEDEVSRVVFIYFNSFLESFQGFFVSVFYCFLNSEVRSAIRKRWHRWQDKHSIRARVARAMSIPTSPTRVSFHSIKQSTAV
Experimental: The purpose of this example was to test the in vitro binding of the compounds of the invention to receptor subtypes CRF1 and CRF2. The in vitro binding of the compounds was determined in a scintillation proximity assay (SPA) as described below. The native, human Ucn1 and Ucn2 peptides are included as references. Scintillation Proximity Assay: […] Both cell lines were cultured at 37° C. in a humidified atmosphere with 5% CO2. […] Membranes were prepared by the following protocol: cultured cells were washed twice with cold Dulbecco’s phosphate buffered saline and detached using TrypLE™ (ThermoFisher) and transferred to tubes and centrifuged for 5 minutes at 1000 g at +4° C. Pellets were resuspended in ice cold homogenization buffer (20 mM Hepes pH 7.1, 5 mM MgCl2, 1 mg/ml Bacitracin with 2 complete EDTA-free protease inhibitor cocktail tablets/50 ml (Roche)) and then homogenized for 30 seconds using a Ultra-Turrax T25 tissue homogenizer (IKA) at medium speed. The homogenate was centrifuged at 35,000 g for 15 minutes at +4° C. using an ultracentrifuge, and the supernatant was discarded, and fresh homogenization buffer was added. Homogenization of the pellet was repeated a total of three times. The final pellet was resuspended in a few millilitres of homogenization buffer and protein concentration was determined using the Bradford method. The membrane preparation was transferred to cryotubes, and the aliquots were stored at -80° C. Each membrane preparation was subsequently titrated to give an appropriate window in the assay. Test procedure: […] Plates were sealed and incubated at 25° C. for 2 hours in a plate shaker set at 400 rpm and thereafter centrifuged at 1500 rpm for 10 minutes. SPA plates were let to stand at room temperature for about 16 hours prior to reading on microplate scintillation counter. Displacement of radioligand was measured as reduction in luminescence, and IC50 values were calculated by nonlinear regression analysis of four parameter sigmoidal dose-response curves.

[2] = target: T1, Human CRF1 receptor; assay: CRF1 receptor CHO cell β-Arrestin recruitment assay (PathHunter); type: cell-based; settings: CHO-K1 cells, 0.1% ovalbumin
Experimental: The purpose of this investigation was to test the in vitro agonistic activity (potency) of the compounds of the invention to receptor subtype CRF1 and CRF2. […] The native, human Ucn1 and Ucn2 peptides were included as references. Assay principle: Activated G-protein coupled receptors (GPCRs) can interact with the Arrestin family of signalling proteins. The potency of peptides for CRF induced Arrestin recruitment is determined using the PathHunter Enzyme Fragment Complementation approach substantially as described in von […] et al., FASEB J., 2007, 3819, 26 and Hamdouchi et al., J. Med. Chem., 2016, 59, 10891-10916. The target GPCR is tagged with the small fragment of β-gal called ProLinkTM, a low affinity version of enzyme donor and co-expressed in cells stably expressing β-Arrestin tagged with enzyme acceptor. Activation of the GPCR stimulates binding of β-Arrestin to the ProLink-tagged GPCR, forcing complementation of ProLink and enzyme acceptor, resulting in the formation of an active β-gal enzyme. The resulting active enzyme hydrolyses substrate present in the PathHunter detection reagents to generate light. […] Plates were first incubated for 90 minutes in a 37° C., 5% CO2 incubator and then 5 μL of PathHunter detection reagent was added (DiscoveRx, 93-0001) and the plates were incubated at room temperature for 60 minutes after which the luminescence signal was measured (BMG […]). […]

IC50 [1] [µM] | EC50 [2] [µM] | Compound
> 1 | > 10 | CC[C@H](C)[C@H](NC(=O)[C@H](CCC(=O)O)NC(=O)[C@H](C)NC(=O)[C@H](CC(N)=O)NC(=O)[C@@H](NC(=O)[C@@H](NC(=O)[C@H](C)NC(=O)[C@H](CCC(N)=O)NC(=O)[C@H](CCC(=O)O)NC(=O)[C@H](CCCNC(=N)N)NC(=O)[C@H](C)NC(=O)[C@H](C)NC(=O)[C@H](CCCNC(=N)N)NC(=O)[C@H](C)NC(=O)[C@H](CCCNC(=N)N)NC(=O)[C@H](C)NC(=O)[C@H](CCC(N)=O)NC(=O)[C@H](CCC(=O)O)NC(=O)[C@H](CC(C)C)NC(=O)[C@H](CC(C)C)NC(=O)[C@@H](NC(=O)[C@H](CCC(N)=O)NC(=O)[C@H](CC(C)C)NC(=O)[C@H](CC(C)C)NC(=O)CNC(=O)[C@@H](NC(=O)[C@@H]1CCCN1C(=O)[C@@H](NC(=O)[C@H](CC(=O)O)NC(=O)[C@H](CC(C)C)NC(=O)[C@H](CO)NC(=O)[C@H](CC(C)C)NC(=O)[C@@H](NC(=O)[C@@H](NC(=O)[C@@H](N)CCCCNC(=O)COCCOCCNC(=O)COCCOCCNC(=O)CC[C@H](NC(=O)CC[C@H](NC(=O)CC[C@H](NC(=O)CCCCCCCCCCCCCCCCCCC(=O)O)C(=O)O)C(=O)O)C(=O)O)[C@@H](C)CC)C(C)C)C(C)C)[C@@H](C)CC)[C@@H](C)CC)[C@@H](C)O)[C@@H](C)O)C(=O)N[C@@H](CC(C)C)C(=O)N[C@@H](CCC(=O)O)C(=O)N[C@@H](CCCNC(=N)N)C(=O)N[C@H](C(N)=O)C(C)C [Compound 4] (H-K([AEEA-AEEA-γGlu-γGlu-γGlu-C20 diacid])IVLSLDVPIGLLQILLEQARARAAREQATTNAEILERV-NH2)
> 1 | > 10 | CC[C@H](C)[C@H](NC(=O)[C@H](CCC(=O)O)NC(=O)[C@H](C)NC(=O)[C@H](CC(N)=O)NC(=O)[C@@H](NC(=O)[C@@H](NC(=O)[C@H](C)NC(=O)[C@H](CCC(N)=O)NC(=O)[C@H](CCC(=O)O)NC(=O)[C@H](CCCNC(=N)N)NC(=O)[C@H](C)NC(=O)[C@H](C)NC(=O)[C@H](CCCNC(=N)N)NC(=O)[C@H](C)NC(=O)[C@H](CCCNC(=N)N)NC(=O)[C@H](C)NC(=O)[C@H](CCC(N)=O)NC(=O)[C@H](CCC(=O)O)NC(=O)[C@H](CC(C)C)NC(=O)[C@H](CC(C)C)NC(=O)[C@@H](NC(=O)[C@H](CCC(N)=O)NC(=O)[C@H](CC(C)C)NC(=O)[C@H](CC(C)C)NC(=O)CNC(=O)[C@@H](NC(=O)[C@@H]1CCCN1C(=O)[C@@H](NC(=O)[C@H](CC(=O)O)NC(=O)[C@H](CC(C)C)NC(=O)[C@H](CO)NC(=O)[C@H](CC(C)C)NC(=O)[C@@H](NC(=O)[C@@H](NC(=O)[C@@H](N)CCCCNC(=O)COCCOCCNC(=O)COCCOCCNC(=O)CC[C@H](NC(=O)CC[C@H](NC(=O)CC[C@H](NC(=O)CCCCCCCCCCCCCCCCCCC(=O)O)C(=O)O)C(=O)O)C(=O)O)[C@@H](C)CC)C(C)C)C(C)C)[C@@H](C)CC)[C@@H](C)CC)[C@@H](C)O)[C@@H](C)O)C(=O)N[C@@H](CC(C)C)C(=O)N[C@@H](C)C(=O)N[C@@H](CCC(=O)O)C(=O)N[C@H](C(N)=O)C(C)C [Compound 3] (H-K([AEEA-AEEA-γGlu-γGlu-γGlu-C20 diacid])IVLSLDVPIGLLQILLEQARARAAREQATTNAEILAEV-NH2)
